The source of these data is US10874739B2, “Near-IR light-cleavable conjugates and conjugate precursors” (The United States of America, as represented by the …, priority 2016, dated 2020).

For orientation: IC50 means the point on the concentration scale where inhibition reaches its midpoint. Higher therefore signals weaker potency.

For assay [1], the system named is MCF-7 (EGFR−). Kind of assay: Near-IR light-dependent growth inhibition, MTT, pre-incubation assay (media exchanged prior to photolysis). The class given is cell-based, human. The note with it: ±hν. On the procedure:
(§1) MDA-MB-468 (EGFR overexpression) and MCF-7 (normal EGFR expression) human breast cancer cell lines were obtained from the NCI DTP, DCTD Tumor Repository. MDA-MB-468 was cultured in RPMI supplemented with 2 mM L-glutamine, 11 mM D-glucose, 24 mM sodium bicarbonate, 10% heat-inactivated fetal bovine serum, 100 units/mL penicillin, 100 μg/mL streptomycin, and 0.25 μg/mL amphotericin B. MCF-7 was cultured in DMEM supplemented with 4 mM L-glutamine, 25 mM D-glucose, 44 mM sodium bicarbonate, 10% heat-inactivated fetal bovine serum, 100 units/mL penicillin, 100 μg/mL streptomycin, and 0.25 μg/mL amphotericin B. Both cell lines were grown at 37° C. in an atmosphere of 20% O2 and 5% CO2. Stock cultures were maintained in continuously exponential growth by weekly passage of the appropriate number of cells following trypsinization with 0.25% Trypsin-EDTA (0.9 mM) in PBS.
(§2) MDA-MB-468 or MCF-7 cells were seeded into 96-well plates (5×10^4 cells/well) and allowed to adhere overnight. […] Irradiation times may be calculated according to the following formula:
(§3) [formula] […] Media was removed, 100 μL of DMSO added to each well to solubilize MTT formazan, and absorbance at 550 nm was recorded using a microplate reader. Drug effects were expressed as % cell viability relative to the DMSO (no inhibitor) control. […]

The subject of assay [2] is MDA-MB-468 (EGFR+). The description is as above. The note with it: ±hν. The class given is cell-based, human. On the procedure:
as §1, §2, §3

On to `CN(C)CCOc1ccc2[nH]c(C(=O)N3C[C@@H](CCl)c4c3cc(O)c3ccccc43)cc2c1` [DuoDM, duocarmycin DM, reference compound], for which the half-maximal inhibitory concentration (IC50) in assay [1] came out at 0.0133 ± 0.0011 nM; in assay [2] it was 0.007 ± 0.0006 nM.
